Inhibition data for one compound are collected here from PMC6934184, “Selective DNA-PKcs inhibition extends the therapeutic index of localized radiotherapy and chemotherapy” (The Journal of Clinical Investigation, 2019).

The target in this assay is T1, PRKACB (PRKAC beta) (Homo sapiens, UniProt P22694).
T1 construct: purchased Thermo Fisher Scientific (Life Technologies) SelectScreen
Description: SelectScreen LanthaScreen. The assay is classed as binding. The conditions noted are these: read-out: % displacement. The method, boiled down:
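Percent values come from Thermo SelectScreen profiling of NU5455, combining activity and binding assays. CSF1R was run in Z'LYTE format at Km app ATP, and CAMK1 in Adapta format with ATP listed at 10.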

As to `CN(C(=O)CN1CCOCC1)c1ccc2sc3c(-c4cccc5c(=O)cc(N6CC7CCC(C6)O7)oc45)cccc3c2c1` [NU5455], the inhibition at 1 µM was -6.8%.
